Test results as given in publication PMC8898874, “NPT1220-312, a TLR2/TLR9 Small Molecule Antagonist, Inhibits Pro-Inflammatory Signaling, Cytokine Release, and NLRP3 Inflammasome Activation” (International Journal of Inflammation, 2022).

Tests used:
TLR2/6 = target: T1, TLR2/6 (Homo sapiens, UniProt O60603); experiment: HEK-Blue hTLR2 SEAP reporter assay, Pam2CSK4-activated (TLR2/6); assay type: cell-based; conditions: hTLR2 HEK cells activated with Pam2CSK4; mean of at least three determinations; read-out: IC50 (PAM-2; μM)
T1 construct: host or cells: HEK293 (HEK-Blue hTLR2)
From the text: (§1) Human embryonic kidney (HEK) Blue hTLR2 secreted embryonic alkaline phosphatase (SEAP) reporter 293 cells, expressing the human TLR2 gene; HEK-Blue hTLR3 SEAP reporter 293 cells, expressing the human TLR3 gene; HEK-Blue hTLR4 SEAP reporter 293 cells, expressing the human TLR4 gene; HEK-Blue hTLR7 SEAP reporter 293 cells, expressing the human TLR7 gene; and HEK-Blue hTLR8 SEAP reporter 293 cells, expressing the human TLR8 gene. HEK Blue cells expressing recombinant human TLRs were obtained by cotransfection of the human TLR2, TLR3, TLR4, TLR7, TLR8, or TLR9 and SEAP (secreted embryonic alkaline phosphatase) genes into HEK293 cells. The SEAP reporter gene was placed under the control of a minimal promoter fused to five NFĸB and AP-1 binding sites. Stimulation with TLRs ligands activates NFĸB and AP-1 that induce the production of SEAP. Therefore, these cells are designed for studying the stimulation of TLRs by monitoring the activation of NFĸB/AP-1. These NFĸB reporter cell lines were used as a primary screening tool due to their robust and well-characterized responses to TLRs activators and inhibitors. […]

TLR1/2 = target: T2, TLR1/2 (Homo sapiens, UniProt O60603); experiment: HEK-Blue hTLR2 SEAP reporter assay, Pam3CSK4-activated (TLR1/2); assay type: cell-based; conditions: hTLR2 HEK cells activated with Pam3CSK4; mean of at least three determinations; read-out: IC50 (PAM-3; μM)
T2 construct: host or cells: HEK293 (HEK-Blue hTLR2)
From the text: as §1

T2 sequence (O60603 21-784): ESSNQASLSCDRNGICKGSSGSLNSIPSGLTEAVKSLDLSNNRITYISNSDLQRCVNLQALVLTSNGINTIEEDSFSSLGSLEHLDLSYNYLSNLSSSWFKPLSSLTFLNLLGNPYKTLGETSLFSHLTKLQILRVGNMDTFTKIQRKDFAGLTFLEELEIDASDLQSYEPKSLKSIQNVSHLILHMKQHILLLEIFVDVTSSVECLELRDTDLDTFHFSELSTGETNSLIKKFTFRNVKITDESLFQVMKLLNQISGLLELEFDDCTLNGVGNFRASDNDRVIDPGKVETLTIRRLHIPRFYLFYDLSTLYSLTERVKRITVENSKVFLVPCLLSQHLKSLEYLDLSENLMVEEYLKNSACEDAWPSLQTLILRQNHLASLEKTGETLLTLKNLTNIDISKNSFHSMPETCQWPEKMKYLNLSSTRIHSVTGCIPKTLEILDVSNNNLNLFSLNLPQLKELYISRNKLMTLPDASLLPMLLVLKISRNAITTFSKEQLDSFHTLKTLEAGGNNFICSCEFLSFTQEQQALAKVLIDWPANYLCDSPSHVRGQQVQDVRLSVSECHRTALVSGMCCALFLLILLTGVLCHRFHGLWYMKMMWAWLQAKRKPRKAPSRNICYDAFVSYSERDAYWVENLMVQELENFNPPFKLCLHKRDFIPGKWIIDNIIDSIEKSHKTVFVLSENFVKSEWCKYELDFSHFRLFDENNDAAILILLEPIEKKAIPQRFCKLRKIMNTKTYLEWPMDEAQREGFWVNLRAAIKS
T1 sequence (O60603 21-784): as above

An IC50 (TLR2/6) of 61.6 µM and an IC50 (TLR1/2) of 40.2 µM were found for `COc1cccc(C=O)c1O` [O-vanillin] in this work.
